# From article PMC12663243 (Scientific Reports, 2025)
# Where a name gives a salt, the structure may show the parent alone. Positions of bridges follow the written chain, without caps; N, C: chain ends. Non-standard residues stand in square brackets, D forms with d. Residues, ends and D or L forms follow the SMILES beside them. Hyp = O=C(O)[C@@H]1C[C@@H](O)CN1
# Key:
# human SSTR4 [1] = molecular target: T1, human SSTR4 (Homo sapiens, UniProt P31391); type: cell-based
# human SSTR1 = human SSTR1 (Homo sapiens, UniProt P30872); type: cell-based
# SSTR4 = conditions: binding assays ref 48; cited from earlier work
# C57Bl/6j mice = conditions: mouse, in vivo, ip, 5 mg/kg
# human SSTR4 [2] = molecular target: T1, human SSTR4; assay: cell-based
# T1 sequence (P31391 whole entry): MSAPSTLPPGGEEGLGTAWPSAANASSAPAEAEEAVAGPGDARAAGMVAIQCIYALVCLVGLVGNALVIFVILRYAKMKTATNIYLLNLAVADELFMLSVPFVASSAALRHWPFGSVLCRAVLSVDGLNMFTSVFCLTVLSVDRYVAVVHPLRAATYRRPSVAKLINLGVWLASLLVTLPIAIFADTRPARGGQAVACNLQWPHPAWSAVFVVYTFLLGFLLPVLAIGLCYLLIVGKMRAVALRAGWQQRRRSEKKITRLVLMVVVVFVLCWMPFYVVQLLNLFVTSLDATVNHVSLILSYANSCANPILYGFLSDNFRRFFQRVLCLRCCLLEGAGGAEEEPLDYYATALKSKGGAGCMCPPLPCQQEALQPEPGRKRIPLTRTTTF
# human SSTR1, sequence (P30872 whole entry): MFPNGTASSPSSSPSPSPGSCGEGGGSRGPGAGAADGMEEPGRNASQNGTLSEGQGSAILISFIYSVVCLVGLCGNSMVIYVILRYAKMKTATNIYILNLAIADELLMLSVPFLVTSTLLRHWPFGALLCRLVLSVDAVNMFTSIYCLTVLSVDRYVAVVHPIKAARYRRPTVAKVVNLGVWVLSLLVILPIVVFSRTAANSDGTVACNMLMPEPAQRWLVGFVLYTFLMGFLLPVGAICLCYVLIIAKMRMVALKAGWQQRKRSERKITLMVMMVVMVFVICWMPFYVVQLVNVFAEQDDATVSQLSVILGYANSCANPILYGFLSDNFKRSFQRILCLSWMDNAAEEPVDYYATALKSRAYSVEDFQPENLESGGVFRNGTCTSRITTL
structure (smiles),measurement,setting,value
CC(C)C[C@H](NC(=O)[C@@H]1C[C@@H](O)CN1C(=O)[C@@H]1CSSC[C@H](NC(=O)[C@@H](NC(=O)[C@@H]2CCCN2)C(C)C)C(=O)N[C@H](Cc2c[nH]c3ccccc23)C(=O)N[C@@H](CCCCN)C(=O)N[C@@H](Cc2ccccc2)C(=O)N[C@@H](CO)C(=O)N1)C(=O)O [Fj1A15] (H-PVC[dW]KFSC[Hyp]L-OH; disulfide 3-8; N-terminus assumed),increase in potency at SSTR4,human SSTR4 [1],14 fold
CC(C)C[C@H](NC(=O)[C@@H]1C[C@@H](O)CN1C(=O)[C@@H]1CSSC[C@H](N)C(=O)N[C@H](Cc2c[nH]c3ccccc23)C(=O)N[C@@H](CCCCN)C(=O)N[C@@H](Cc2ccccc2)C(=O)NCC(=O)N1)C(=O)O [Fj1A10] (H-C[dW]KFGC[Hyp]L-OH; disulfide 1-6; N-terminus assumed),decrease in potency at SSTR4,human SSTR4 [1],13 fold
CC(C)[C@H](NC(=O)[C@@H]1CCCN1)C(=O)N[C@H]1CSSC[C@@H](C(=O)N[C@@H](Cc2c[nH]c3ccccc23)C(=O)O)NC(=O)[C@H]([C@@H](C)O)NC(=O)[C@H](Cc2ccccc2)NC(=O)[C@H](CCCCN)NC(=O)[C@@H](Cc2c[nH]c3ccccc23)NC1=O [Fj1A19] (H-PVC[dW]KFTCW-OH; disulfide 3-8; N-terminus assumed),effect on SSTR4 potency,human SSTR4 [1],slight decrease in SSTR4 potency
CC(C)C[C@H](NC(=O)[C@@H]1C[C@@H](O)CN1C(=O)[C@@H]1CSSC[C@H](NC(=O)[C@@H](NC(=O)[C@@H]2CCCN2)C(C)C)C(=O)N[C@H](Cc2c[nH]c3ccccc23)C(=O)N[C@@H](CCCCN)C(=O)N[C@H](Cc2ccccc2)C(=O)NCC(=O)N1)C(=O)O [Fj1A8] (H-PVC[dW]K[dF]GC[Hyp]L-OH; disulfide 3-8; N-terminus assumed),decrease in potency at SSTR4,human SSTR4 [1],42 fold
CC(C)C[C@H](NC(=O)[C@@H]1C[C@@H](O)CN1C(=O)[C@@H]1CSSC[C@H](NC(=O)[C@@H](NC(=O)[C@@H]2CCCN2)C(C)C)C(=O)N[C@H](Cc2c[nH]c3ccccc23)C(=O)N[C@@H](CCCCN)C(=O)N[C@@H](Cc2ccccc2)C(=O)N[C@@H]([C@@H](C)O)C(=O)N1)C(=O)O [Fj1A16] (H-PVC[dW]KFTC[Hyp]L-OH; disulfide 3-8; N-terminus assumed),effect on SSTR1 potency,human SSTR1,slight increase in SSTR1 activity
same,effect on SSTR4 potency,human SSTR4 [1],retained the SSTR4 potency of Fj1
CC(C)[C@H](NC(=O)[C@@H]1CCCN1)C(=O)N[C@H]1CSSC[C@@H](C(=O)N[C@@H](Cc2c[nH]c3ccccc23)C(=O)O)NC(=O)[C@H](CO)NC(=O)[C@H](Cc2ccccc2)NC(=O)[C@H](CCCCN)NC(=O)[C@@H](Cc2c[nH]c3ccccc23)NC1=O [Fj1A18] (H-PVC[dW]KFSCW-OH; disulfide 3-8; N-terminus assumed),effect on SSTR4 potency,human SSTR4 [1],well tolerated
Cc1ccc(S(=O)(=O)N[C@@H](CCN)C(=O)N[C@@H](Cc2ccccc2)C(N)=O)c2ccccc12 [J-2156],selectivity for SSTR4 over SSTR1,SSTR4,approximately 360 fold
same,selectivity for SSTR4 over SSTR5,SSTR4,~390 fold
"CN1CC[C@]23c4c5ccc(O)c4O[C@H]2[C@@H](O)C=C[C@H]3[C@H]1C5 [morphine, morphine sulfate]",duration of action,C57Bl/6j mice,shorter
same,peak efficacy,C57Bl/6j mice,higher peak efficacy than Fj1
CC(C)C[C@H](NC(=O)[C@@H]1CCCN1C(=O)[C@@H]1CSSC[C@H](NC(=O)[C@@H](NC(=O)[C@@H]2CCCN2)C(C)C)C(=O)N[C@H](Cc2c[nH]c3ccccc23)C(=O)N[C@@H](CCCCN)C(=O)N[C@@H](Cc2ccccc2)C(=O)NCC(=O)N1)C(=O)O [Fj1A7] (H-PVC[dW]KFGCPL-OH; disulfide 3-8; N-terminus assumed),effect on SSTR1 potency,human SSTR1,increase in SSTR1 potency
same,effect on SSTR4 potency,human SSTR4 [1],virtually no effect
CC(C)[C@H](NC(=O)[C@@H]1CSSC[C@H](NC(=O)[C@H](CC(N)=O)NC(=O)[C@@H](N)Cc2ccc(O)cc2)C(=O)N[C@@H](Cc2c[nH]cn2)C(=O)N[C@H](Cc2c[nH]c3ccccc23)C(=O)N[C@@H](CCCCN)C(=O)N[C@@H]([C@@H](C)O)C(=O)N1)C(=O)O [Fj2] (H-YNCH[dW]KTCV-OH; disulfide 3-8; N-terminus assumed),EC50,human SSTR4 [2],2 µM
CC(C)[C@H](NC(=O)[C@@H]1CCCN1)C(=O)N[C@H]1CSSC[C@@H](C(=O)N[C@@H](Cc2c[nH]c3ccccc23)C(=O)O)NC(=O)[C@H](CC(N)=O)NC(=O)[C@H](Cc2ccccc2)NC(=O)[C@H](CCCCN)NC(=O)[C@@H](Cc2c[nH]c3ccccc23)NC1=O [Fj1A20] (H-PVC[dW]KFNCW-OH; disulfide 3-8; N-terminus assumed),effect on SSTR4 potency,human SSTR4 [1],slight decrease in SSTR4 potency
CC(C)C[C@H](NC(=O)[C@@H]1C[C@@H](O)CN1C(=O)[C@@H]1CSSC[C@H](NC(=O)[C@@H](NC(=O)[C@@H]2CCCN2)C(C)C)C(=O)N[C@H](Cc2c[nH]c3ccccc23)C(=O)N[C@@H](CCCCN)C(=O)N[C@@H](C)C(=O)NCC(=O)N1)C(=O)O [Fj1A3] (H-PVC[dW]KAGC[Hyp]L-OH; disulfide 3-8; N-terminus assumed),decrease in potency at SSTR4,human SSTR4 [1],630 fold
CC(C)C[C@H](NC(=O)[C@@H]1C[C@@H](O)CN1C(=O)[C@@H]1CSSC[C@H](NC(=O)[C@@H](NC(=O)[C@@H]2CCCN2)C(C)C)C(=O)N[C@H](Cc2c[nH]c3ccccc23)C(=O)N[C@@H](CCCCN)C(=O)N[C@@H](Cc2ccccc2)C(=O)N[C@@H](CC(N)=O)C(=O)N1)C(=O)O [Fj1A17] (H-PVC[dW]KFNC[Hyp]L-OH; disulfide 3-8; N-terminus assumed),increase in potency at SSTR4,human SSTR4 [1],6.8 fold
CC(C)[C@H](NC(=O)[C@@H]1CCCN1)C(=O)N[C@H]1CSSC[C@@H](C(=O)O)NC(=O)CNC(=O)[C@H](Cc2ccccc2)NC(=O)[C@H](CCCCN)NC(=O)[C@@H](Cc2c[nH]c3ccccc23)NC1=O [Fj1A11] (H-PVC[dW]KFGC-OH; disulfide 3-8; N-terminus assumed),effect on SSTR4 potency,human SSTR4 [1],virtually equipotent
"NCCCC[C@@H]1NC(=O)[C@@H](Cc2c[nH]c3ccccc23)NC(=O)[C@@H](N)CSSC[C@@H](C(=O)O)NC(=O)CNC(=O)[C@H](Cc2ccccc2)NC1=O [Fj1A9, Cys3-D-Trp4-Lys5-Phe6-Gly7-Cys8] (H-C[dW]KFGC-OH; disulfide 1-6; N-terminus assumed)",decrease in potency at SSTR4,human SSTR4 [1],47 fold
CC(C)[C@H](NC(=O)[C@@H]1CCCN1)C(=O)N[C@H]1CSSC[C@@H](C(=O)N[C@@H](Cc2c[nH]c3ccccc23)C(=O)O)NC(=O)CNC(=O)[C@H](Cc2ccccc2)NC(=O)[C@H](CCCCN)NC(=O)[C@@H](Cc2c[nH]c3ccccc23)NC1=O [Fj1A14] (H-PVC[dW]KFGCW-OH; disulfide 3-8; N-terminus assumed),increase in potency at SSTR4,human SSTR4 [1],85 fold
CC(C)C[C@H](NC(=O)[C@@H]1C[C@@H](O)CN1C(=O)[C@@H]1CSSC[C@H](NC(=O)[C@H](Cc2ccccc2)NC(=O)[C@@H](N)CC(C)C)C(=O)N[C@H](Cc2c[nH]c3ccccc23)C(=O)N[C@@H](CCCCN)C(=O)N[C@@H](Cc2ccccc2)C(=O)NCC(=O)N1)C(=O)O [Fj1A13] (H-LFC[dW]KFGC[Hyp]L-OH; disulfide 3-8; N-terminus assumed),increase in potency at SSTR4,human SSTR4 [1],11 fold
CC(C)C[C@H](NC(=O)[C@@H]1C[C@@H](O)CN1C(=O)[C@@H]1CSSC[C@H](NC(=O)[C@@H](NC(=O)[C@@H]2CCCN2)C(C)C)C(=O)N[C@H](Cc2c[nH]c3ccccc23)C(=O)N[C@@H](CCCCN)C(=O)N[C@@H](Cc2ccccc2)C(=O)N[C@@H](C)C(=O)N1)C(=O)O [Fj1A4] (H-PVC[dW]KFAC[Hyp]L-OH; disulfide 3-8; N-terminus assumed),increase in potency at SSTR4,human SSTR4 [1],6.2 fold
CC(C)C[C@H](NC(=O)[C@@H]1C[C@@H](O)CN1C(=O)[C@@H]1CSSC[C@H](NC(=O)[C@@H](NC(=O)[C@@H]2CCCN2)C(C)C)C(=O)N[C@@H](C)C(=O)N[C@@H](CCCCN)C(=O)N[C@@H](Cc2ccccc2)C(=O)NCC(=O)N1)C(=O)O [Fj1A1] (H-PVCAKFGC[Hyp]L-OH; disulfide 3-8; N-terminus assumed),decrease in potency at SSTR4,human SSTR4 [1],5000 fold
